Activity, minimal effective concentration and inhibition data for 4 molecules are collected here from ChEMBL document CHEMBL5120932, “Discovery and Optimization of Seven-Membered Lactam-Based Compounds to Phenocopy the Inhibition of the Aurora Kinase B” (ACS Med Chem Lett, 2022).

Active and inactive are the calls of the source. No cut-off for these calls is given here.

The test system of assay [1] is HCT-116. Description: Cytotoxicity against human HCT-116 cells assessed as reduction in cell viability measured after 6 days by MTT assay. It is filed as functional, cell-based. The settings on record: time 6.0 day.
In assay [2] the test system is NCI-H23. The experiment in a line: Cytotoxicity against human NCI-H23 cells assessed as reduction in cell viability measured after 6 days by MTT assay. The settings on record: time 6.0 day. It is filed as functional, cell-based.
Assay [3] deals with MDA-MB-231. The experiment in a line: Cytotoxicity against human MDA-MB-231 cells assessed as reduction in cell viability measured after 6 days by MTT assay. It counts as functional, cell-based. The settings on record: time 6.0 day. (In general: Tetrazolium dyes change colour on reduction, which living cells bring about.)
A short description of assay [4]: Induction of mitotic arrest in human RPE cells over expressing H2B-GFP-fused MYC assessed as minimum effective concentration for polyploidy measured after 24 to 72 hrs by fluorescence microscopy. It counts as functional. The settings on record: time 24-72 hrs, read-out: MEC.
Assay [5] in a line: Induction of mitotic arrest in human RPE cells over expressing H2B-GFP-fused MYC assessed as increase in polyploidy at 40 uM measured after 24 to 72 hrs by fluorescence microscopy. It counts as functional. The settings on record: time 24-72 hrs.
The test system of another assay is A549. Description: Cytotoxicity against human A549 cells assessed as reduction in cell viability measured after 6 days by MTT assay. It counts as functional, cell-based. The note with it: time 6.0 day.
The subject of assay [6] is NCI-N87. Description: Cytotoxicity against human NCI-N87 cells assessed as reduction in cell proliferation at 10 uM measured after 3 days by MTT assay. It is filed as functional, cell-based. The settings on record: time 3.0 day.
The next assay has as its system NCI-H460. Description: Cytotoxicity against human NCI-H460 cells assessed as reduction in cell viability measured after 6 days by MTT assay. It counts as functional, cell-based. The settings on record: time 6.0 day.
The test system of assay [7] is HCT-116. The experiment in a line: Cytotoxicity against human HCT-116 cells assessed as reduction in cell proliferation at 10 uM measured after 3 days by MTT assay. It counts as functional, cell-based. The settings on record: time 3.0 day.
Assay [8] deals with NCI-N87. Description: Cytotoxicity against human NCI-N87 cells assessed as reduction in cell viability measured after 6 days by MTT assay. The note with it: time 6.0 day. It counts as functional, cell-based.
In a further assay the test system is NCI-H596. Description: Cytotoxicity against human NCI-H596 cells assessed as reduction in cell viability measured after 6 days by MTT assay. It counts as functional, cell-based. The settings on record: time 6.0 day.
The subject of assay [9] is MDA-MB-231. Description: Cytotoxicity against human MDA-MB-231 cells assessed as reduction in cell proliferation at 10 uM measured after 3 days by MTT assay. It is filed as functional, cell-based. The note with it: time 3.0 day.
Assay [10] relates to DU-145. Description: Cytotoxicity against human DU-145 cells assessed as reduction in cell viability measured after 6 days by MTT assay. It counts as functional, cell-based. The settings on record: time 6.0 day.
The test system of assay [11] is DU-145. Description: Cytotoxicity against human DU-145 cells assessed as reduction in cell proliferation at 10 uM measured after 3 days by MTT assay. The settings on record: time 3.0 day. It is filed as functional, cell-based.
The test system of a further assay is Calu-6. The experiment in a line: Cytotoxicity against human Calu-6 cells assessed as reduction in cell viability measured after 6 days by MTT assay. It is filed as functional, cell-based. The settings on record: time 6.0 day.
Assay [12] relates to NCI-H23. Description: Cytotoxicity against human NCI-H23 cells assessed as reduction in cell proliferation at 10 uM measured after 3 days by MTT assay. It counts as functional, cell-based. The settings on record: time 3.0 day.
Assay [13] addresses T1, Aurora kinase A (Homo sapiens) (UniProt O14965).
T1 sequence (whole entry): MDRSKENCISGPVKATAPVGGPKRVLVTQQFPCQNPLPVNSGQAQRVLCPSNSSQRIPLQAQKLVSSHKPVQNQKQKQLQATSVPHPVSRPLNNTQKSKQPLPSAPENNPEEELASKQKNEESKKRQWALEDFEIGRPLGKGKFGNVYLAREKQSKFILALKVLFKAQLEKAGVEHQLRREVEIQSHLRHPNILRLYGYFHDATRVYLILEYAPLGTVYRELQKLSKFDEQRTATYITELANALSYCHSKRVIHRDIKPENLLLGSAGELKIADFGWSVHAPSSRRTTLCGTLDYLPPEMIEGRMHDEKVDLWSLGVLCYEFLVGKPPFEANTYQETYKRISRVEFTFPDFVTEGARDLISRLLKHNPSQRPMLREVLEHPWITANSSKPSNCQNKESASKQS
The experiment in a line: Inhibition of AURKA in human RPE cells over expressing H2B-GFP-fused MYC assessed as reduction in autophosphorylation at Thr288 residues at 0.64 uM measured after 6 hrs by immunofluorescence assay. It counts as cell-based.

Assay [14] deals with Aurora kinase B (Homo sapiens) (UniProt Q96GD4). Description: Inhibition of AURKB in human RPE cells over expressing H2B-GFP-fused MYC assessed as reduction in phosphorylation at Ser10 residues at 200 nM using histone H3 as substrate measured after 6 hrs by immunofluorescence assay. It counts as cell-based.
Assay [15] in a line: Induction of mitotic arrest in human RPE cells over expressing H2B-GFP-fused MYC assessed as minimum effective concentration for polyploidy measured after 24 hrs by fluorescence microscopy. It is filed as functional. The settings on record: read-out: MEC.
A short description of assay [16]: Induction of mitotic arrest in human RPE cells over expressing H2B-GFP-fused MYC assessed as polyploidy cells in the interphase cell population at 40 uM measured after 72 hrs by fluorescence microscopy relative to control. It counts as functional.

Chain of Aurora kinase B (Homo sapiens) (Q96GD4 whole entry, the tested form may be a part): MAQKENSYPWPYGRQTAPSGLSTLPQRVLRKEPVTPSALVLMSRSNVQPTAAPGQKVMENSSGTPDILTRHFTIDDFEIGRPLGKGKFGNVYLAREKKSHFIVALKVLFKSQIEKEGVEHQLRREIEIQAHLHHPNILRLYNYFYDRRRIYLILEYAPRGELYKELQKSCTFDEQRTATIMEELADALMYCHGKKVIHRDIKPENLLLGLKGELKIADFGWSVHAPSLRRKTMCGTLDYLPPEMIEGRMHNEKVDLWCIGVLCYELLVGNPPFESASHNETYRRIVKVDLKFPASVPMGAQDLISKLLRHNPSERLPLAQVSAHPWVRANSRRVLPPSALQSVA

Regarding `COC(=O)C1=C(O)c2ccccc2N(Cc2ccc(C)c(F)c2)C(=O)C1`, the result in the assay with HCT-116 [1], in the assay on NCI-H23 [2], with MDA-MB-231 [3], with A549, in the assay with NCI-N87 [6] and in the assay with NCI-H460 was Active. For the same molecule, the result in the assay on HCT-116 [7], in the assay on NCI-N87 [8], in the assay with NCI-H596, in the assay on MDA-MB-231 [9], with DU-145 [10] and in the assay on DU-145 [11] was Active. In addition, the outcome in the assay on Calu-6 and in the assay on NCI-H23 [12] was Active. Moreover, in [4], the minimal effective concentration came out at 0.019 µM. The Activity in assay [5] turned out to be 30%.
Turning to `COC(=O)C1=C(O)c2ccccc2N(Cc2ccc(OC)c(F)c2)C(=O)C1`, the result in the assay on HCT-116 [1], in the assay with NCI-H23 [2], in the assay on MDA-MB-231 [3], with A549, in the assay on NCI-N87 [6] and in the assay on NCI-H460 was Active. The result in the assay on HCT-116 [7], in the assay on NCI-N87 [8], with NCI-H596, in the assay with MDA-MB-231 [9], in the assay with DU-145 [10] and with DU-145 [11] was Active. Moreover, the result with Calu-6 and in the assay with NCI-H23 [12] was Active. For the same molecule, in [4], the minimal effective concentration came to 0.039 µM. For the same molecule, the Activity in [5] is given as 70%. In assay [13], the inhibition result is “Active”.
On to `CCN(CCO)CCCOc1ccc2c(Nc3cc(CC(=O)Nc4cccc(F)c4)[nH]n3)ncnc2c1`, for which the inhibition entry in assay [14] was “Active”.
Consider `COC(=O)C1=C(O)c2ccccc2NC(=O)C1`, for which, in assay [15], the minimal effective concentration was 40 µM. For the same molecule, the Activity in assay [16] is recorded as 50%.
